Converted amounts (≈) assume the structure as drawn.
Columns and labels:
Staphylococcus aureus [1] = test: Antimicrobial activity against methicillin-resistant Staphylococcus aureus incubated for 18 hrs by serial microdilution method; assay type: functional
Staphylococcus aureus [2] = test: Antimicrobial activity against Staphylococcus aureus ATCC 6538 incubated for 18 hrs by serial microdilution method; assay type: functional; settings: ATCC 6538, 18 h
Staphylococcus aureus [3] = test: Antimicrobial activity against MLSB-resistant Staphylococcus aureus incubated for 18 hrs by serial microdilution method; assay type: functional
[4] = test system: Staphylococcus epidermidis; test: Antimicrobial activity against Staphylococcus epidermidis ATCC 12228 incubated for 18 hrs by serial microdilution method; assay type: functional; settings: ATCC 12228, 18 h
[5] = test system: Staphylococcus epidermidis; test: Antimicrobial activity against Staphylococcus epidermidis ATCC 49134 incubated for 18 hrs by serial microdilution method; assay type: functional; settings: ATCC 49134, 18 h
Enterococcus faecalis = test: Antimicrobial activity against Enterococcus faecalis ATCC 29212 incubated for 18 hrs by serial microdilution method; assay type: functional; settings: ATCC 29212, 18 h
Escherichia coli = test: Antimicrobial activity against Escherichia coli ATCC 25922 incubated for 18 hrs by serial microdilution method; assay type: functional; settings: ATCC 25922, 18 h
[6] = Solubility of the compound in water at pH 7 by UV-vis spectrophotometric analysis; assay type: physicochemical
[7] = Lipophilicity, log P of the compound in octanol and water incubated for 1 h under shaking condition; assay type: physicochemical

SMILES | MIC (Staphylococcus aureus [1]) [µg/mL] | MIC (Staphylococcus aureus [2]) [µg/mL] | MIC (Staphylococcus aureus [3]) [µg/mL] | MIC [4] [µg/mL] | MIC [5] [µg/mL] | MIC (Enterococcus faecalis) [µg/mL] | MIC (Escherichia coli) [µg/mL] | solubility [6] [µg/mL] | logP at 1 h [7]
CO[C@H]1/C=C/O[C@@]2(C)Oc3c(C)c(O)c4c(O)c(c(CNC5CCCNC5=O)c(O)c4c3C2=O)NC(=O)/C(C)=C\C=C\[C@H](C)[C@H](O)[C@@H](C)[C@@H](O)[C@@H](C)[C@H](OC(C)=O)[C@@H]1C (stereo not given in full) | 0.25 (≈ 0.303 µM) | 0.5 (≈ 0.607 µM) | 0.5 (≈ 0.607 µM) | 0.25 (≈ 0.303 µM) | 0.25 (≈ 0.303 µM) | > 8 | > 8 | 210 (≈ 255 µM) | 1.14
CO[C@H]1/C=C/O[C@@]2(C)Oc3c(C)c(O)c4c(O)c(c(/C=N/N5CCCCC5)c(O)c4c3C2=O)NC(=O)/C(C)=C\C=C\[C@H](C)[C@H](O)[C@@H](C)[C@@H](O)[C@@H](C)[C@H](OC(C)=O)[C@@H]1C | 0.0156 (≈ 0.0193 µM) | 0.0156 (≈ 0.0193 µM) | 0.5 (≈ 0.619 µM) | 0.0156 (≈ 0.0193 µM) | 0.0312 (≈ 0.0387 µM) | 0.5 (≈ 0.619 µM) | > 8 | < 300 | 3.27
CO[C@H]1/C=C/O[C@@]2(C)Oc3c(C)c(O)c4c(O)c(c(/C=N/N5CCOCC5)c(O)c4c3C2=O)NC(=O)/C(C)=C\C=C\[C@H](C)[C@H](O)[C@@H](C)[C@@H](O)[C@@H](C)[C@H](OC(C)=O)[C@@H]1C | 0.5 (≈ 0.617 µM) | 1 (≈ 1.23 µM) | 1 (≈ 1.23 µM) | 0.25 (≈ 0.309 µM) | 0.25 (≈ 0.309 µM) | > 8 | > 8 | < 50 | 2.79
CO[C@H]1/C=C/O[C@@]2(C)Oc3c(C)c(O)c4c(O)c(c(/C=N/N5CCCCCC5)c(O)c4c3C2=O)NC(=O)/C(C)=C\C=C\[C@H](C)[C@H](O)[C@@H](C)[C@@H](O)[C@@H](C)[C@H](OC(C)=O)[C@@H]1C | 0.0625 (≈ 0.076 µM) | 0.0625 (≈ 0.076 µM) | 0.5 (≈ 0.608 µM) | 0.0312 (≈ 0.038 µM) | 0.0312 (≈ 0.038 µM) | 0.5 (≈ 0.608 µM) | > 8 | < 300 | 3.43
CO[C@H]1/C=C/O[C@@]2(C)Oc3c(C)c(O)c4c(O)c(c(/C=N/N5CCCC5)c(O)c4c3C2=O)NC(=O)/C(C)=C\C=C\[C@H](C)[C@H](O)[C@@H](C)[C@@H](O)[C@@H](C)[C@H](OC(C)=O)[C@@H]1C | 0.25 (≈ 0.315 µM) | 0.25 (≈ 0.315 µM) | 0.5 (≈ 0.63 µM) | 0.25 (≈ 0.315 µM) | 0.25 (≈ 0.315 µM) | 4 (≈ 5.04 µM) | > 8 | < 300 | 3.13
CO[C@H]1/C=C/O[C@@]2(C)Oc3c(C)c(O)c4c(O)c(c(CNC5CCCC(C(N)=O)C5)c(O)c4c3C2=O)NC(=O)/C(C)=C\C=C\[C@H](C)[C@H](O)[C@@H](C)[C@@H](O)[C@@H](C)[C@H](OC(C)=O)[C@@H]1C (stereo not given in full) | 0.5 (≈ 0.587 µM) | 0.5 (≈ 0.587 µM) | 0.25 (≈ 0.293 µM) | 0.25 (≈ 0.293 µM) | 0.25 (≈ 0.293 µM) | > 8 | > 8 | 150 (≈ 176 µM) | 1.33
CO[C@H]1/C=C/O[C@@]2(C)Oc3c(C)c(O)c4c(O)c(c(CNC56CC7CC(CC(C7)C5)C6)c(O)c4c3C2=O)NC(=O)/C(C)=C\C=C\[C@H](C)[C@H](O)[C@@H](C)[C@@H](O)[C@@H](C)[C@H](OC(C)=O)[C@@H]1C | 0.5 (≈ 0.581 µM) | 0.5 (≈ 0.581 µM) | 0.5 (≈ 0.581 µM) | 4 (≈ 4.65 µM) | 2 (≈ 2.32 µM) | 1 (≈ 1.16 µM) | > 8 | < 50 | 1.91
CO[C@H]1/C=C/O[C@@]2(C)Oc3c(C)c(O)c4c(O)c(c(/C=N/Nc5ccccc5)c(O)c4c3C2=O)NC(=O)/C(C)=C\C=C\[C@H](C)[C@H](O)[C@@H](C)[C@@H](O)[C@@H](C)[C@H](OC(C)=O)[C@@H]1C | 0.5 (≈ 0.613 µM) | 0.5 (≈ 0.613 µM) | 1 (≈ 1.23 µM) | 0.5 (≈ 0.613 µM) | 0.25 (≈ 0.306 µM) | > 8 | > 8 | < 50 | 2.75
CO[C@H]1/C=C/O[C@@]2(C)Oc3c(C)c(O)c4c(O)c(c(CNC5CCN(CC6CCCCC6)CC5)c(O)c4c3C2=O)NC(=O)/C(C)=C\C=C\[C@H](C)[C@H](O)[C@@H](C)[C@@H](O)[C@@H](C)[C@H](OC(C)=O)[C@@H]1C | 0.25 (≈ 0.276 µM) | 0.25 (≈ 0.276 µM) | 0.125 (≈ 0.138 µM) | 0.125 (≈ 0.138 µM) | 0.125 (≈ 0.138 µM) | 4 (≈ 4.41 µM) | > 8 | < 50 | 3.31
CO[C@H]1/C=C/O[C@@]2(C)Oc3c(C)c(O)c4c(O)c(c(CN5CCN(C)C6(CCN(C)CC6)C5)c(O)c4c3C2=O)NC(=O)/C(C)=C\C=C\[C@H](C)[C@H](O)[C@@H](C)[C@@H](O)[C@@H](C)[C@H](OC(C)=O)[C@@H]1C | 0.125 (≈ 0.14 µM) | 0.25 (≈ 0.28 µM) | 0.125 (≈ 0.14 µM) | 0.0625 (≈ 0.07 µM) | 0.0625 (≈ 0.07 µM) | 2 (≈ 2.24 µM) | > 8 | 1830 (≈ 2050 µM) | 0.72
CO[C@H]1/C=C/O[C@@]2(C)Oc3c(C)c(O)c4c(O)c(c(CN5CCC(N(C)C)CC5)c(O)c4c3C2=O)NC(=O)/C(C)=C\C=C\[C@H](C)[C@H](O)[C@@H](C)[C@@H](O)[C@@H](C)[C@H](OC(C)=O)[C@@H]1C | 0.25 (≈ 0.298 µM) | 0.25 (≈ 0.298 µM) | 0.125 (≈ 0.149 µM) | 0.125 (≈ 0.149 µM) | 0.125 (≈ 0.149 µM) | 8 (≈ 9.55 µM) | > 8 | 1870 (≈ 2230 µM) | 1.23
CO[C@H]1/C=C/O[C@@]2(C)Oc3c(C)c(O)c4c(O)c(c(CN5CCN(Cc6ccc(F)cc6)CC5)c(O)c4c3C2=O)NC(=O)/C(C)=C\C=C\[C@H](C)[C@H](O)[C@@H](C)[C@@H](O)[C@@H](C)[C@H](OC(C)=O)[C@@H]1C | 1 (≈ 1.11 µM) | 1 (≈ 1.11 µM) | 0.25 (≈ 0.277 µM) | 0.25 (≈ 0.277 µM) | 0.25 (≈ 0.277 µM) | 8 (≈ 8.85 µM) | > 8 | < 50 | 3.31
CO[C@H]1/C=C/O[C@@]2(C)Oc3c(C)c(O)c4c(O)c(c(CN5CCC(NS(C)(=O)=O)CC5)c(O)c4c3C2=O)NC(=O)/C(C)=C\C=C\[C@H](C)[C@H](O)[C@@H](C)[C@@H](O)[C@@H](C)[C@H](OC(C)=O)[C@@H]1C | 2 (≈ 2.25 µM) | 4 (≈ 4.5 µM) | 2 (≈ 2.25 µM) | 0.5 (≈ 0.563 µM) | 0.5 (≈ 0.563 µM) | > 8 | > 8 | 36400 (≈ 41000 µM) | 0.31
CO[C@H]1/C=C/O[C@@]2(C)Oc3c(C)c(O)c4c(O)c(c(/C=N/NCc5ccccc5)c(O)c4c3C2=O)NC(=O)/C(C)=C\C=C\[C@H](C)[C@H](O)[C@@H](C)[C@@H](O)[C@@H](C)[C@H](OC(C)=O)[C@@H]1C | 1 (≈ 1.2 µM) | 0.5 (≈ 0.602 µM) | 0.5 (≈ 0.602 µM) | 0.25 (≈ 0.301 µM) | 0.25 (≈ 0.301 µM) | > 8 | > 8 | < 50 | 2.34
CO[C@H]1/C=C/O[C@@]2(C)Oc3c(C)c(O)c4c(O)c(c(CN5CCN(Cc6c(C)cc(C)cc6C)CC5)c(O)c4c3C2=O)NC(=O)/C(C)=C\C=C\[C@H](C)[C@H](O)[C@@H](C)[C@@H](O)[C@@H](C)[C@H](OC(C)=O)[C@@H]1C | 2 (≈ 2.15 µM) | 4 (≈ 4.31 µM) | 2 (≈ 2.15 µM) | 0.5 (≈ 0.539 µM) | 1 (≈ 1.08 µM) | > 8 | > 8 | < 300 | 1.82
CO[C@H]1/C=C/O[C@@]2(C)Oc3c(C)c(O)c4c(O)c(c(CN5CCN(c6ccncc6)CC5)c(O)c4c3C2=O)NC(=O)/C(C)=C\C=C\[C@H](C)[C@H](O)[C@@H](C)[C@@H](O)[C@@H](C)[C@H](OC(C)=O)[C@@H]1C | 2 (≈ 2.29 µM) | 2 (≈ 2.29 µM) | 2 (≈ 2.29 µM) | 0.5 (≈ 0.573 µM) | 0.5 (≈ 0.573 µM) | > 8 | > 8 | < 50 | 2.06
CO[C@H]1/C=C/O[C@@]2(C)Oc3c(C)c(O)c4c(O)c(c(CNC5CCN(CC(=O)O)CC5)c(O)c4c3C2=O)NC(=O)/C(C)=C\C=C\[C@H](C)[C@H](O)[C@@H](C)[C@@H](O)[C@@H](C)[C@H](OC(C)=O)[C@@H]1C | 0.25 (≈ 0.288 µM) | 0.25 (≈ 0.288 µM) | 0.5 (≈ 0.576 µM) | 0.0625 (≈ 0.072 µM) | 0.0625 (≈ 0.072 µM) | > 8 | > 8 | > 100000 | -1.5
CO[C@H]1/C=C/O[C@@]2(C)Oc3c(C)c(O)c4c(O)c(c(CNCC(=O)N5CCCCC5)c(O)c4c3C2=O)NC(=O)/C(C)=C\C=C\[C@H](C)[C@H](O)[C@@H](C)[C@@H](O)[C@@H](C)[C@H](OC(C)=O)[C@@H]1C | 1 (≈ 1.17 µM) | 1 (≈ 1.17 µM) | 1 (≈ 1.17 µM) | 0.5 (≈ 0.587 µM) | 0.25 (≈ 0.293 µM) | > 8 | > 8 | 120 (≈ 141 µM) | 1.35
CO[C@H]1/C=C/O[C@@]2(C)Oc3c(C)c(O)c4c(O)c(c(CN5CCN(c6ncccc6C(F)(F)F)CC5)c(O)c4c3C2=O)NC(=O)/C(C)=C\C=C\[C@H](C)[C@H](O)[C@@H](C)[C@@H](O)[C@@H](C)[C@H](OC(C)=O)[C@@H]1C | 4 (≈ 4.25 µM) | 2 (≈ 2.13 µM) | 2 (≈ 2.13 µM) | 0.5 (≈ 0.531 µM) | 0.5 (≈ 0.531 µM) | > 8 | > 8 | < 50 | 2.09
CCS(=O)(=O)N1CCN(Cc2c3c(O)c4c(O)c(C)c5c(c4c2O)C(=O)[C@@](C)(O/C=C/[C@H](OC)[C@@H](C)[C@@H](OC(C)=O)[C@H](C)[C@H](O)[C@H](C)[C@@H](O)[C@@H](C)/C=C/C=C(/C)C(=O)N3)O5)CC1 | 0.5 (≈ 0.563 µM) | 0.5 (≈ 0.563 µM) | 0.5 (≈ 0.563 µM) | 0.25 (≈ 0.282 µM) | 0.25 (≈ 0.282 µM) | > 8 | > 8 | 1730 (≈ 1950 µM) | 1.41

— ChEMBL document CHEMBL4339185 (Eur J Med Chem, 2019)
